{"source": "ChEMBL document CHEMBL1671693", "about": "“Antimicrobial resistance of Listeria monocytogenes strains isolated from humans in France” (2010)", "key": {"Listeria monocytogenes [1]": {"system": "Listeria monocytogenes", "test": "Antibacterial activity against Listeria monocytogenes isolated from humans harboring cat gene", "assay_type": "functional"}, "Listeria monocytogenes [2]": {"system": "Listeria monocytogenes", "test": "Antibacterial activity against Listeria monocytogenes isolated from humans harboring lde gene"}, "Listeria monocytogenes [3]": {"system": "Listeria monocytogenes", "test": "Antibacterial activity against Listeria monocytogenes isolated from humans with putative chromosomal mutation", "assay_type": "functional"}, "Listeria monocytogenes [4]": {"system": "Listeria monocytogenes", "test": "Antibacterial activity against Listeria monocytogenes isolated from humans harboring tet(M) gene", "assay_type": "functional"}, "Listeria monocytogenes [5]": {"system": "Listeria monocytogenes", "test": "Antibacterial activity against Listeria monocytogenes isolated from humans harboring int-tn gene", "assay_type": "functional"}, "Listeria monocytogenes [6]": {"system": "Listeria monocytogenes", "test": "Antibacterial activity against Listeria monocytogenes isolated from humans harboring putative ribosomal mutation", "assay_type": "functional"}, "Listeria monocytogenes [7]": {"system": "Listeria monocytogenes", "test": "Antibacterial activity against Listeria monocytogenes isolated from humans harboring mutant dfrD gene"}}, "data": [{"smiles": "O=C(N[C@H](CO)[C@H](O)c1ccc([N+](=O)[O-])cc1)C(Cl)Cl", "note": "[CHLORAMPHENICOL]", "values": [{"measurement": "MIC", "setting": "Listeria monocytogenes [1]", "result": 48, "unit": "µg/mL"}]}, {"smiles": "O=C(O)c1cn(C2CC2)c2cc(N3CCNCC3)c(F)cc2c1=O", "note": "[CIPROFLOXACIN]", "values": [{"measurement": "MIC", "setting": "Listeria monocytogenes [2]", "result": "> 6", "unit": "µg/mL"}]}, {"smiles": "CC[C@H]1OC(=O)[C@H](C)[C@@H](O[C@H]2C[C@@](C)(OC)[C@@H](O)[C@H](C)O2)[C@H](C)[C@@H](O[C@@H]2O[C@H](C)C[C@H](N(C)C)[C@H]2O)[C@](C)(O)C[C@@H](C)C(=O)[C@H](C)[C@@H](O)[C@]1(C)O", "note": "[ERYTHROMYCIN]", "values": [{"measurement": "MIC", "setting": "Listeria monocytogenes [3]", "result": 256, "unit": "µg/mL"}]}, {"smiles": "CN(C)c1ccc(O)c2c1C[C@H]1C[C@H]3[C@H](N(C)C)C(O)=C(C(N)=O)C(=O)[C@@]3(O)C(O)=C1C2=O", "note": "[MINOCYCLINE]", "values": [{"measurement": "MIC", "setting": "Listeria monocytogenes [4]", "result": 8, "unit": "µg/mL"}, {"measurement": "MIC", "setting": "Listeria monocytogenes [5]", "result": 8, "unit": "µg/mL"}]}, {"smiles": "CN[C@@H]1[C@H](O[C@H]2[C@H](O[C@H]3[C@H](O)[C@@H](O)[C@H](N=C(N)N)[C@@H](O)[C@@H]3N=C(N)N)O[C@@H](C)[C@]2(O)C=O)O[C@@H](CO)[C@H](O)[C@H]1O", "note": "[STREPTOMYCIN]", "values": [{"measurement": "MIC", "setting": "Listeria monocytogenes [6]", "result": 256, "unit": "µg/mL"}]}, {"smiles": "CN(C)[C@@H]1C(O)=C(C(N)=O)C(=O)[C@@]2(O)C(O)=C3C(=O)c4c(O)cccc4[C@@](C)(O)[C@H]3C[C@@H]12", "note": "[TETRACYCLINE]", "values": [{"measurement": "MIC", "setting": "Listeria monocytogenes [4]", "result": 16, "unit": "µg/mL"}, {"measurement": "MIC", "setting": "Listeria monocytogenes [5]", "result": 16, "unit": "µg/mL"}]}, {"smiles": "COc1cc(Cc2cnc(N)nc2N)cc(OC)c1OC", "note": "[TRIMETHOPRIM]", "values": [{"measurement": "MIC", "setting": "Listeria monocytogenes [7]", "result": 1020, "unit": "µg/mL"}]}]}
